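Cultured in 96-well plates, cells were exposed to test compound for 48 hours across five concentrations. Here, GI50 denotes the concentration required for 50% inhibition of growth.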 Activity calls are given as the source filed them. Cut-off read from the data, not from the text of the source: active = GI50 up to about 1.1 µM and inactive = higher.
Key:
Assay in all cases: NCI-60 cell line screen, 48 h
[1] = tested on: OVCAR-3
[2] = tested on: SW-620
[3] = tested on: OVCAR-4
[4] = tested on: SR
[5] = tested on: SK-MEL-28
[6] = tested on: RPMI-8226
[7] = tested on: OVCAR-8
[8] = tested on: MOLT-4
[9] = tested on: U-251
[10] = tested on: HT-29
[11] = tested on: NCI/ADR-RES
[12] = tested on: NCI-H460
[13] = tested on: A549
[14] = tested on: BT-549
[15] = tested on: IGROV-1
[16] = tested on: SN12C
[17] = tested on: HOP-62
[18] = tested on: NCI-H226
[19] = tested on: M14
[20] = tested on: UACC-257
[21] = tested on: RXF 393
[22] = tested on: K562
[23] = tested on: SF-268
[24] = tested on: A498
[25] = tested on: HL-60
[26] = tested on: Malme-3M
[27] = tested on: SNB-19
[28] = tested on: Hs-578T
[29] = tested on: OVCAR-5
[30] = tested on: UO-31
[31] = tested on: MCF7
[32] = tested on: MDA-MB-435
[33] = tested on: HCC 2998
[34] = tested on: COLO 205
[35] = tested on: NCI-H23
[36] = tested on: HCT-116
[37] = tested on: SNB-75
[38] = tested on: MDA-MB-231
[39] = tested on: EKVX
[40] = tested on: MDA-N
[41] = tested on: CCRF-CEM
[42] = tested on: T47D
[43] = tested on: UACC-62
[44] = tested on: SK-MEL-2
[45] = tested on: SF-539
[46] = tested on: HOP-92
[47] = tested on: CAKI-1
[48] = tested on: DU-145
[49] = tested on: LOX IMVI
[50] = tested on: KM12
[51] = tested on: SK-OV-3
[52] = tested on: SF-295
[53] = tested on: TK-10
[54] = tested on: PC-3
[55] = tested on: ACHN
[56] = tested on: SK-MEL-5
[57] = tested on: HCT-15
[58] = tested on: NCI-H522
[59] = tested on: 786-0

`C=C1C(=O)O[C@@H]2C(=O)[C@@H](C)[C@@H]3C=CC(=O)[C@@]3(C)[C@@H](OC(=O)/C(C)=C\C)[C@H]12` [MULTISTATIN] was tested, and the GI50 [1] was 0.653 µM (active), the GI50 [2] was 0.361 µM (active) and the GI50 [3] was 5.04 µM (inactive). For the same compound, the GI50 [4] was 0.223 µM (active), the GI50 [5] was 0.278 µM (active) and the GI50 [6] was 0.327 µM (active). The GI50 [7] was 1.73 µM (inactive), the GI50 [8] was 0.41 µM (active) and the GI50 [9] was 2.43 µM (inactive). The GI50 [10] was 0.371 µM (active), the GI50 [11] was 2.37 µM (inactive) and the GI50 [12] was 2.21 µM (inactive). The GI50 [13] was 10.6 µM (inactive), the GI50 [14] was 0.689 µM (active) and the GI50 [15] was 1.48 µM (inactive). The GI50 [16] was 1.42 µM (inactive), the GI50 [17] was 11.9 µM (inactive) and the GI50 [18] was 2.38 µM (inactive). The GI50 [19] was 1.56 µM (inactive), the GI50 [20] was 1.47 µM (inactive) and the GI50 [21] was 0.378 µM (active). The GI50 [22] was 0.293 µM (active), the GI50 [23] was 1.69 µM (inactive) and the GI50 [24] was 1.69 µM (inactive). The GI50 [25] was 0.132 µM (active), the GI50 [26] was 0.298 µM (active) and the GI50 [27] was 12.9 µM (inactive). The GI50 [28] was 6.44 µM (inactive), the GI50 [29] was 2.22 µM (inactive) and the GI50 [30] was 1.21 µM (inactive). For the same compound, the GI50 [31] was 0.394 µM (active), the GI50 [32] was 1.29 µM (inactive) and the GI50 [33] was 1.71 µM (inactive). The GI50 [34] was 0.237 µM (active), the GI50 [35] was 2.88 µM (inactive) and the GI50 [36] was 0.238 µM (active). For the same compound, the GI50 [37] was 5.53 µM (inactive), the GI50 [38] was 1.88 µM (inactive) and the GI50 [39] was 1.1 µM (active). For the same compound, the GI50 [40] was 0.675 µM (active), the GI50 [41] was 0.168 µM (active) and the GI50 [42] was 0.483 µM (active). For the same compound, the GI50 [43] was 1.25 µM (inactive), the GI50 [44] was 2.86 µM (inactive) and the GI50 [45] was 1.84 µM (inactive). The GI50 [46] was 0.393 µM (active), the GI50 [47] was 0.264 µM (active) and the GI50 [48] was 1.57 µM (inactive). The GI50 [49] was 0.555 µM (active), the GI50 [50] was 2.3 µM (inactive) and the GI50 [51] was 13.1 µM (inactive). The GI50 [52] was 13 µM (inactive), the GI50 [53] was 0.538 µM (active) and the GI50 [54] was 2.29 µM (inactive). For the same compound, the GI50 [55] was 0.212 µM (active), the GI50 [56] was 1.68 µM (inactive) and the GI50 [57] was 0.284 µM. The GI50 [58] was 0.0883 µM (active) and the GI50 [59] was 0.31 µM (active).
In the case of `COC1(OC)C=CC(=O)C=C1`, the GI50 [1] is reported as 4.2 µM (inactive), the GI50 [2] is reported as 1.45 µM (inactive) and the GI50 [3] is reported as 3.05 µM (inactive). The GI50 [4] was 0.843 µM (active), the GI50 [5] was 1.85 µM (inactive) and the GI50 [6] was 2.74 µM (inactive). The GI50 [7] was 1.83 µM (inactive), the GI50 [8] was 2.33 µM (inactive) and the GI50 [9] was 1.78 µM (inactive). The GI50 [10] was 3.11 µM (inactive), the GI50 [11] was 4.2 µM (inactive) and the GI50 [12] was 6.61 µM (inactive). The GI50 [13] was 5.85 µM (inactive), the GI50 [14] was 3.55 µM (inactive) and the GI50 [15] was 1.72 µM (inactive). For the same compound, the GI50 [16] was 7.48 µM (inactive), the GI50 [17] was 10.6 µM (inactive) and the GI50 [18] was 2.61 µM (inactive). The GI50 [19] was 3.3 µM (inactive), the GI50 [20] was 2.4 µM (inactive) and the GI50 [21] was 0.701 µM (active). For the same compound, the GI50 [22] was 2.2 µM (inactive), the GI50 [23] was 4.09 µM (inactive) and the GI50 [24] was 32.6 µM (inactive). For the same compound, the GI50 [25] was 3.15 µM (inactive), the GI50 [26] was < 0.01 µM (active) and the GI50 [27] was 15.7 µM (inactive). The GI50 [28] was 9.84 µM (inactive), the GI50 [29] was 10.4 µM (inactive) and the GI50 [30] was 1.89 µM (inactive). The GI50 [31] was 1.3 µM (inactive), the GI50 [32] was 3.31 µM (inactive) and the GI50 [33] was 3.68 µM (inactive). The GI50 [34] was 7.69 µM (inactive), the GI50 [35] was 2.66 µM (inactive) and the GI50 [36] was 1.3 µM (inactive). The GI50 [37] was 11 µM (inactive), the GI50 [38] was 2.9 µM (inactive) and the GI50 [39] was 6.78 µM (inactive). For the same compound, the GI50 [40] was 7.41 µM (inactive), the GI50 [41] was 0.446 µM (active) and the GI50 [42] was 3.22 µM (inactive). The GI50 [43] was 1.82 µM (inactive), the GI50 [44] was 6.81 µM (inactive) and the GI50 [45] was 1.74 µM (inactive). For the same compound, the GI50 [46] was 4.43 µM (inactive), the GI50 [47] was 3.61 µM (inactive) and the GI50 [48] was 3.48 µM (inactive). The GI50 [49] was 0.667 µM (active), the GI50 [50] was 7.52 µM (inactive) and the GI50 [51] was 13 µM (inactive). For the same compound, the GI50 [52] was 11 µM (inactive), the GI50 [53] was 2.69 µM (inactive) and the GI50 [54] was 3.27 µM (inactive). The GI50 [55] was 2.54 µM (inactive), the GI50 [56] was 2.8 µM (inactive) and the GI50 [57] was 4.17 µM. The GI50 [58] was 0.149 µM (active) and the GI50 [59] was 1.9 µM (inactive).
`CC(C)(C)c1cc(C(=O)/C=C/c2ccc3c(c2)OCO3)cc(C(C)(C)C)c1O` was tested, and the GI50 [1] was 4.53 µM (inactive), the GI50 [2] was 5.96 µM (inactive) and the GI50 [3] was 6.95 µM (inactive). The GI50 [4] was 2.18 µM (inactive), the GI50 [5] was 18.6 µM (inactive) and the GI50 [6] was 4.39 µM (inactive). The GI50 [7] was 13.6 µM (inactive), the GI50 [8] was 5.6 µM (inactive) and the GI50 [9] was 6.68 µM (inactive). For the same compound, the GI50 [10] was 5.73 µM (inactive), the GI50 [11] was 4.29 µM (inactive) and the GI50 [12] was 4.8 µM (inactive). The GI50 [13] was 9.64 µM (inactive), the GI50 [14] was 6.3 µM (inactive) and the GI50 [15] was 17.9 µM (inactive). The GI50 [16] was 10.1 µM (inactive), the GI50 [17] was 19.4 µM (inactive) and the GI50 [18] was 15.2 µM (inactive). For the same compound, the GI50 [19] was 8.11 µM (inactive), the GI50 [20] was 2.95 µM (inactive) and the GI50 [21] was 1.86 µM (inactive). The GI50 [22] was 5.24 µM (inactive), the GI50 [23] was 8.79 µM (inactive) and the GI50 [24] was 10.3 µM (inactive). The GI50 [25] was 3.07 µM (inactive), the GI50 [26] was 32.4 µM (inactive) and the GI50 [27] was 13.3 µM (inactive). For the same compound, the GI50 [28] was 6.93 µM (inactive), the GI50 [29] was 16.3 µM (inactive) and the GI50 [30] was 6.38 µM (inactive). The GI50 [31] was 5.28 µM (inactive), the GI50 [32] was 2.26 µM (inactive) and the GI50 [33] was 1.75 µM (inactive). For the same compound, the GI50 [34] was 5.61 µM (inactive), the GI50 [35] was 9.82 µM (inactive) and the GI50 [36] was 4.51 µM (inactive). The GI50 [37] was 3.2 µM (inactive), the GI50 [38] was 8.11 µM (inactive) and the GI50 [39] was 21.9 µM (inactive). For the same compound, the GI50 [40] was 1.98 µM (inactive), the GI50 [41] was 3.48 µM (inactive) and the GI50 [42] was 2.55 µM (inactive). For the same compound, the GI50 [43] was 6.04 µM (inactive), the GI50 [44] was 3.26 µM (inactive) and the GI50 [45] was 6.44 µM (inactive). The GI50 [46] was 25.6 µM (inactive), the GI50 [47] was 9.29 µM (inactive) and the GI50 [48] was 5.06 µM (inactive). The GI50 [49] was 8.32 µM (inactive), the GI50 [50] was 5.05 µM (inactive) and the GI50 [51] was 15.8 µM (inactive). The GI50 [52] was 5.7 µM (inactive), the GI50 [53] was 9.91 µM (inactive) and the GI50 [54] was 3.99 µM (inactive). The GI50 [55] was 8.55 µM (inactive), the GI50 [56] was 4.2 µM (inactive) and the GI50 [57] was 4.83 µM. For the same compound, the GI50 [58] was 11.9 µM (inactive) and the GI50 [59] was 6.62 µM (inactive).
